The values that follow come from patent US20260083865A1, “PROSTATE SPECIFIC MEMBRANE ANTIGEN (PSMA) LIGANDS AND USE THEREOF” (priority 2022, published 2026).

Read-outs that look alike come from different tables or passages of the source. Numbered stars: 1 amine (or outer) side, 2 acyl side, 3 side chain; on linkers, the order of the positions; unused ones are H or OH. Bridge positions count the residues as written; N and C are the ends. Square brackets hold non-standard residues; d marks the D form. Peptide text beside a SMILES is read from it. * marks the point of attachment. TtdsdLys(DOTA)NH2 = NC(=O)[C@@H](CCCCNC(=O)CN1CCN(CC(=O)O)CCN(CC(=O)O)CCN(CC(=O)O)CC1)NC(=O)CCC(=O)NCCCOCCOCCOCCCN*; DOTA = O=C(O)CN1CCN(CC(=O)O)CCN(CC(=O)*)CCN(CC(=O)O)CC1; Trp(5-Br) = N[C@@H](Cc1c[nH]c2ccc(Br)cc12)C(=O)O; Phe(4-Cl) = N[C@@H](Cc1ccc(Cl)cc1)C(=O)O; X1 = O=C(CC1CCN([*:1])CC1)[*:2]; Cit = NC(=O)NCCC[C@H](N)C(=O)O; Lys(Me) = CNCCCC[C@H](N)C(=O)O; Tle = CC(C)(C)[C@H](N)C(=O)O; Hexanoyl = CCCCCC(=O)*; Aib = CC(C)(N)C(=O)O; GABA = NCCCC(=O)O

In assay [1] the target is T1, PSMA-expressing C4-2 cells (Homo sapiens, UniProt Q04609).
T1 construct: PSMA-expressing C4-2 cells (ATCC, Cat. No. CRL-3314) were cultured in RPMI-1640; host or cells: C4-2 cells
The assay can be described thus: FACS binding assay (competition with 50 nM PSM-0183). The settings on record: for IC50: read-out: pIC50 [C4-2] CAT (converted). In a few lines: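 C4-2 cells were incubated 1 h at 4 °C with 50 nM AF488-labelled peptide PSM-0183 plus increasing test compound concentrations, then washed twice in ice-cold buffer. Median fluorescence in the AF488 channel was read by flow cytometry. IC50/pIC50 was derived by 4PL fitting of MFI versus concentration.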
(A flow cytometer gives signals particle by particle.)

In assay [2] the target is T2, Fc-fusion protein of human PSMA (hPSMA-Fc) (Homo sapiens, UniProt Q04609).
T2 construct: purchased Acro Biosystems PSA-H5264
The experiment in a line: Surface plasmon resonance assay (Biacore T200, single cycle kinetic). Format: binding. To be noted: hPSMA-Fc, 25° C.; for Kd: read-out: pKD CAT (converted). In a few lines:
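hPSMA-Fc was captured (~1000 RU) on an Fc-binding-peptide CM5 chip, and compounds were run in single cycle kinetic mode at 25° C in HBST with 0.1% DMSO. Double-blank-corrected sensorgrams were fitted to a 1:1 Langmuir model to give KD, reported as pKD.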
(Surface plasmon resonance follows binding to a sensor surface in real time, without labels.)

[3] abbreviates: pIC50 category of FACS binding, C4-2 cells.
[4] abbreviates: pKD category for PSMA SPR activity assay.
The mark [5] stands for this setting: FACS binding, PSMA-expressing C4-2 cells, pIC50 category.

T2 sequence (Q04609 44-750 limits assumed): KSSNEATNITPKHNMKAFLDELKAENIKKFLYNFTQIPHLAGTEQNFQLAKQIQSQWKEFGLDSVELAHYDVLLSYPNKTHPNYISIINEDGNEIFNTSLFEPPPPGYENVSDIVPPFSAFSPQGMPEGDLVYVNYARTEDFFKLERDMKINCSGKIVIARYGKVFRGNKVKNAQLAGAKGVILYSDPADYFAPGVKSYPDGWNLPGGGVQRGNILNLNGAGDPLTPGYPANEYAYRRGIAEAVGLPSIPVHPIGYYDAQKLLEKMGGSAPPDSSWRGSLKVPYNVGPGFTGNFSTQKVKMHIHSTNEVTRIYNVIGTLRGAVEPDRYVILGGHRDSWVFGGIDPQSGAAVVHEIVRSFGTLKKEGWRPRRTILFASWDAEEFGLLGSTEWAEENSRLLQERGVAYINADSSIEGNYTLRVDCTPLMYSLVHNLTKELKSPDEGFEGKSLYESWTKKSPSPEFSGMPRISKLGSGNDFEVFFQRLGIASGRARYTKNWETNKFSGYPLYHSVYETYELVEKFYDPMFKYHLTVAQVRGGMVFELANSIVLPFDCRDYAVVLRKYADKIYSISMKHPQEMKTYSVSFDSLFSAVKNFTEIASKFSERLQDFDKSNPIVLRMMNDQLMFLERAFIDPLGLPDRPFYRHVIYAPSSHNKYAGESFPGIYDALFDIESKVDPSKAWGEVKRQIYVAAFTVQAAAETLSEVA
T1 sequence (Q04609 whole entry): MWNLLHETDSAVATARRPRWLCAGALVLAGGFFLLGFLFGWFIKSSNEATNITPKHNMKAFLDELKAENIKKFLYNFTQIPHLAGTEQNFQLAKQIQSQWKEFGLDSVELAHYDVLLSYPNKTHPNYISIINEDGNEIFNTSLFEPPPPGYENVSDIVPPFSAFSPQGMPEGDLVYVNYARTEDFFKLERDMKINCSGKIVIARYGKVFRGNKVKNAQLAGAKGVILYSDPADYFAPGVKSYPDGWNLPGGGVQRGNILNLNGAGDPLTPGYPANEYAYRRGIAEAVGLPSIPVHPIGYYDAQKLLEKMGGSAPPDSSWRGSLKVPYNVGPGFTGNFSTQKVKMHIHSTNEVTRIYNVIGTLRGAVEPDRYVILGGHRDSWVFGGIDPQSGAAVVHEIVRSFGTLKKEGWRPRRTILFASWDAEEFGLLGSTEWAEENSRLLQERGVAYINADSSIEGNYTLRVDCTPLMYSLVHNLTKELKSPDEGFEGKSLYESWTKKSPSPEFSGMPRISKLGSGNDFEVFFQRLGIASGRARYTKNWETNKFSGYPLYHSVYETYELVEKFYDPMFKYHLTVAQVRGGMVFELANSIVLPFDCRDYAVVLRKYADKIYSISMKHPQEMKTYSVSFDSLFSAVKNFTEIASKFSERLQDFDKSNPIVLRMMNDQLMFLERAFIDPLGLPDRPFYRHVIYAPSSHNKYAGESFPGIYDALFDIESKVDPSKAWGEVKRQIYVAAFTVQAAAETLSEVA

In the case of `CCCCCC(=O)N[C@H](C(=O)NC(C)(C)C(=O)N[C@@H](Cc1ccccc1)C(=O)N[C@H]1CSSC[C@@H](C(=O)N[C@H](C(=O)N[C@H](C(=O)N[C@@H](CC(=O)O)C(=O)NCCCOCCOCCOCCCNC(=O)CCC(=O)N[C@H](CCCCNC(=O)CN2CCN(CC(=O)O)CCN(CC(=O)O)CCN(CC(=O)O)CC2)C(N)=O)[C@@H](C)O)C(C)(C)C)NC(=O)[C@H](CC(N)=O)NC(=O)[C@H](C)NC(=O)[C@H](CCCNC(=N)N)NC(=O)[C@H](CCCCN)NC1=O)[C@@H](C)O` [PSM-0502, Hex-Thr-Aib-Phe-[Cys-Lys-Arg-Ala-Asn-Cys]-Tle-Thr-Asp-Ttds-lys(DOTA)-NH2] (Hexanoyl-T[Aib]FCKRANC[Tle]TD-{TtdsdLys(DOTA)NH2}; disulfide 4-9), the IC50 in assay [1] (setting [3]) is less than 200 nM. The Kd in assay [2] (setting [4]) is less than 12.6 nM.
`CC(=O)N[C@H](C(=O)NC(C)(C)C(=O)N[C@@H](Cc1ccccc1)C(=O)N[C@H]1CSSC[C@@H](C(=O)N[C@H](C(=O)NCCCC(N)=O)C(C)(C)C)NC(=O)[C@H](CC(N)=O)NC(=O)C(C)(C)NC(=O)[C@H](CCCNC(=N)N)NC(=O)[C@H](CCCCN)NC1=O)[C@@H](C)O` [PSM-0297, Ac-Thr-Aib-Pho-[Cys-Lys-Arg-Aib-Asn-Cys]-Tle-Gab-NH2] (Ac-T[Aib]FCKR[Aib]NC[Tle][GABA]-NH2; disulfide 4-9): the IC50 in assay [1] (setting [5]) is less than 200 nM. In assay [2] (PSMA SPR assay, pKD category), the Kd was less than 12.6 nM.
Taken in the same sequence, the figures for `C[C@@H](O)[C@H](NC(=O)[C@@H](NC(=O)[C@@H]1CSSC[C@H](NC(=O)[C@H](Cc2c[nH]c3ccc(Br)cc23)NC(=O)C(C)(C)NC(=O)[C@@H](NC(=O)CC2CCN(C(=O)CN3CCN(CC(=O)O)CCN(CC(=O)O)CCN(CC(=O)O)CC3)CC2)[C@@H](C)O)C(=O)N[C@@H](CCCCN)C(=O)N[C@@H](CCCNC(N)=O)C(=O)NC(C)(C)C(=O)N[C@@H](CC(N)=O)C(=O)N1)C(C)(C)C)C(N)=O` [PSM-0359, DOTA-Cmp-Thr-Aib-5Brw-[Cys-Lys-Cit-Aib-Asn-Cys]-Tle-Thr-NH2] ({DOTA}-[X1]T[Aib][Trp(5-Br)]CK[Cit][Aib]NC[Tle]T-NH2; disulfide 5-10) were greater than 3160 nM and greater than 501 nM.
Consider `CC(=O)N[C@H](C(=O)NC(C)(C)C(=O)N[C@@H](Cc1ccccc1)C(=O)N[C@H]1CSSC[C@@H](C(=O)N[C@H](C(=O)N[C@H](C(=O)N[C@H](CCCCNC(=O)CN2CCN(CC(=O)O)CCN(CC(=O)O)CCN(CC(=O)O)CC2)C(N)=O)[C@@H](C)O)C(C)(C)C)NC(=O)[C@H](CC(N)=O)NC(=O)C(C)(C)NC(=O)[C@H](CCCNC(=N)N)NC(=O)[C@H](CCCCN)NC1=O)[C@@H](C)O` [PSM-0288, Ac-Thr-Aib-Phe-[Cys-Lys-Arg-Aib-Asn-Cys]-Tle-Thr-lys(DOTA)-NH2] (Ac-T[Aib]FCKR[Aib]NC[Tle]T[dK](DOTA)-NH2; disulfide 4-9), for which the IC50 in assay [1] (setting [5]) was less than 200 nM. For the same molecule, in assay [2] (PSMA SPR assay, pKD category), the Kd is less than 12.6 nM.
As to `CNCCCC[C@@H]1NC(=O)[C@@H](NC(=O)[C@H](Cc2ccc(Cl)cc2)NC(=O)C(C)(C)NC(=O)[C@@H](NC(=O)CC2CCN(C(=O)CN3CCN(CC(=O)O)CCN(CC(=O)O)CCN(CC(=O)O)CC3)CC2)[C@@H](C)O)CSSC[C@@H](C(=O)N[C@H](C(=O)N[C@H](C(N)=O)[C@@H](C)O)C(C)(C)C)NC(=O)[C@H](CC(N)=O)NC(=O)C(C)(C)NC(=O)[C@H](CCCNC(=N)N)NC1=O` [PSM-0410, DOTA-Cmp-Thr-Aib-Pcf-[Cys-Lys(Me)-Arg-Aib-Asn-Cys]-Tle-Thr-NH2] ({DOTA}-[X1]T[Aib][Phe(4-Cl)]C[Lys(Me)]R[Aib]NC[Tle]T-NH2; disulfide 5-10), the IC50 in assay [1] (setting [3]) is less than 200 nM. The Kd in assay [2] (setting [4]) is less than 12.6 nM.
For the molecule “Ac-Thr-Aib-Phe-[Cys-Lys-Arg-Aib-Asn-Cys]-Tle-Thr-Cmp-lys (InDOTA)-NH2 [PSM-0440]”, the “pIC50 [C4-2] CAT” value in assay [1] (setting [3]) is listed as “A (pIC50 values >6.7)”. In addition, in assay [2] (setting [4]), the “pKD CAT” value is reported as “A (pKD values >7.9)”.
